These results are taken from patent publication US12636294B2, “Compositions and methods for the treatment or prevention of traumatic brain injury” (priority 2019, dated 2026).

The test system of data set [1] is rat model of TBI induced by controlled cortical impact (CCI). Description: Morris Water Maze (MWM), spatial learning and memory after CCI injury. Format: in vivo, Sprague-Dawley (SD) rats. As to conditions: observed; for E (normalised activity value used to calculate synergy), MWM proportion of rats that reached the platform / E (normalised activity value used to calculate synergy), MWM instances of rats reaching the platform: (X-placebo)/(sham-placebo); for E (normalised activity value used to calculate synergy), MWM instances of rats reaching the platform: 7-days post-head injury; for Instances of centre of rat corresponding to platform location normalised to the number of rats in group / Number of rats that reached the platform normalised to the total number of rats in each group: MWM 7-days post-head injury; for Instances of centre of rat corresponding to platform location normalised to the number of rats in group: CBD 20 mg/kg I.P LD 15-30 min post-injury + MD x 6, isoflurane 1.5% inhaled LD at 1 hr post-injury; for Number of rats that reached the platform normalised to the total number of rats in each group: CBD 20 mg/kg I.P LD + MD x 6, isoflurane 1.5% inhaled LD. The procedure:
(§1) The effect of cannabidiol (CBD) combined with isoflurane therapy was assessed using a rat model of TBI induced by controlled cortical impact (CCI). Briefly, Sprague-Dawley (SD) rats were anaesthetised with 3% pentobarbital sodium before fixing the head in a stereotaxic frame. After performing a craniotomy, a contusion injury (CCI) was induced with an IMP-3000 TBI Impactor with a diameter of 5.0 mm, a depth of 2.5 mm, dwell time of 100 ms and velocity of 5 m/s. Control rats underwent the same surgical procedure, including craniotomy, without CCI.
(§2) The randomised groups are detailed in Table 2.
(§3) Behavioural outcomes following CCI were assessed using the Morris Water Maze (MWM), which assesses cognitive defects after CCI injury (see, e.g., Nunez, 2008, Journal of Visualized Experiments, 897) and the Rotarod test, which assesses changes in motor function (see, e.g., Shiotsuki et al., 2010, Journal of Neuroscience Methods, 189: 180-185).
(§4) The combinatorial neuroprotective effects of CBD and isoflurane were assessed using a rat controlled cortical impact model of TBI. Briefly, head injury is induced in the rats by first performing a craniotomy to remove a small disc of bone from the skull and then using a pneumatic rod to directly impact the exposed brain. Controlled Cortical Impact (CCI) parameters used in this study were 2.5 mm depth, 5 m/s velocity, 100 ms dwell time. Sham control animals underwent an identical surgical procedure, including craniotomy, but without the CCI injury.
(§5) Animals were treated with CBD (20 mg/kg) and isoflurane (1.5%) both alone and in combination (Table 2). A loading dose comprising CBD and isoflurane was administered sequentially, with CBD administered 15-30 min post injury and isoflurane administered 1-2 h after injury. Daily maintenance doses of CBD were administered for six consecutive days after administration of the loading dose.
(§6) To determine the neuroprotective effects associated with the combination of CBD and isoflurane, the MWM, a well-established assay for investigation of spatial learning and memory (Nunez, 2008, supra; D'Hooge et al., 2001, Brain Research Reviews, 36: 60-90), and the Rotarod, a device used to monitor motor coordination (Deacon, 2013, Journal of Visualized Expreiments, e2609-e2609; Shitosuki et al., 2010, supra), were used 7-days post-head injury. The predicted combinatorial effects of CBD and isoflurane were calculated using the Bliss independence principle using the equation: Epred A+B=(EA+EB)−(EAEB)
(§7) The activity of the combination for this equation was calculated as: (X−placebo)/(sham−placebo)
In the MWM a rat is trained to recognise where a platform is located in a water tank over a series of days. It is then released into the tank and monitored for the ability to locate the platform. A lack of ability to locate the platform is indicative of a spatial memory neurocognitive deficit.

The test system is the same in data set [2]. In words: Rotarod test, motor function after CCI injury. Format: in vivo, Sprague-Dawley (SD) rats. As to conditions: observed; for E (normalised activity value used to calculate synergy), Rotarod latencies: (X-placebo)/(sham-placebo); for Latency: Rotarod 7-days post-head injury, CBD 20 mg/kg I.P LD + MD x 6, isoflurane 1.5% inhaled LD. The procedure: as §1, §2, §3, §4, §5, §6, §7

The conditions of data set [3]: after inhalation; general statement, no experiment described; cited from earlier work.
The conditions of data set [4]: general statement, no experiment described; cited from earlier work.

As for `C=C(C)[C@@H]1CCC(C)=C[C@H]1c1c(O)cc(CCCCC)cc1O` [CBD, cannabidiol], in data set [1], the “E (normalised activity value used to calculate synergy), MWM proportion of rats that reached the platform” value is reported as 0.21; the “E (normalised activity value used to calculate synergy), MWM instances of rats reaching the platform” value is −0.2; the “Instances of centre of rat corresponding to platform location normalised to the number of rats in group” value is listed as 0.4; the “Number of rats that reached the platform normalised to the total number of rats in each group” value was determined as 0.4. Besides, in data set [2], the “E (normalised activity value used to calculate synergy), Rotarod latencies” value is listed as −0.04 and the “Latency” value is on record as 17.60 s. Also, the “Time to achieve significant CNS concentrations” value in data set [3] is “within two minutes”.
Regarding `COC(F)(F)C(Cl)Cl` [Methoxyflurane, methoxyflurane], the Lipid solubility entry in data set [4] is “highly lipid-soluble”. For the same compound, in data set [3], the “Time to achieve significant CNS concentrations” value was no more than 2 min.
Take `FC(F)OC(Cl)C(F)(F)F` (stereo not drawn) [isoflurane]: in data set [1], the “E (normalised activity value used to calculate synergy), MWM proportion of rats that reached the platform” value is 0.50; the “E (normalised activity value used to calculate synergy), MWM instances of rats reaching the platform” value was 0.67; the “Instances of centre of rat corresponding to platform location normalised to the number of rats in group” value came to 0.83; the “Number of rats that reached the platform normalised to the total number of rats in each group” value stood at 0.5. Moreover, in data set [2], the “E (normalised activity value used to calculate synergy), Rotarod latencies” value was −0.09 and the “Latency” value is listed as 17.33 s.
